Series [1] relates to CQ-resistant P. falciparum FcB1/Colombia strain. The experiment in a line: In vitro growth inhibition of P. falciparum ([3H]-hypoxanthine incorporation). It is filed as cell-based, Plasmodium falciparum. Conditions: for fold more active in comparison to the diester compound 17: ratio of IC50 against P. falciparum FcB1 versus 17; for times more active than FSM: ratio of IC50 against P. falciparum FcB1 versus FSM. Here is the method: Specifically, IC50 (μM) values for the antiplasmodial activities were determined from four independent experiments as the mean values ± standard deviations. IC50 (μM) values for the cytotoxicity activities were determined from two independent experiments as the mean values ± standard deviations. IC50, SIs (ratio between IC50 (μM) of cytotoxicity/IC50 (μM) of the antiplasmodial activity), and XLogGP3 values for the FSM derivatives, hybrid, and conjugates are reported in Table 1.
The chloroquine-resistant FcB1/Colombia strain of Plasmodium falciparum was maintained in vitro on human erythrocytes in RPMI 1640 medium supplemented by 8% (v/v) heat-inactivated human serum, at 37 °C, under an atmosphere of 3% CO2, 6% O2, and 91% N2 [45]. In vitro drug susceptibility assays were measured by [^3H]-hypoxanthine incorporation. Drug stock solutions were prepared in DMSO. Compounds were serially diluted two-fold with 100 μL of culture medium in 96-well plates. Asynchronous parasite cultures (100 μL, 1% parasitaemia and 1% final hematocrite) were then added to each well and incubated for 24 h at 37 °C prior to the addition of 0.5μCi of [^3H]-hypoxanthine (GE Healthcare, France, 1 to 5Ci·mmol/mL) per well [42]. After a further incubation of 24 h, plates were frozen and thawed. Cell lysates were then collected onto fiberglass filters and counted in a liquid scintillation spectrometer. The growth inhibition for each drug concentration was determined by comparison of the radioactivity incorporated in the treated culture with that in the control culture maintained on the same plate. The IC50 value was obtained from the drug concentration–response curve and the results were expressed as the mean values ± standard deviations determined from several independent experiments. Chloroquine and artemisinin were used as antimalarial drug controls.

Series [2] concerns human primary fibroblasts (cell line AB943). In words: Cytotoxicity evaluation (resazurin) and selectivity index. It is filed as cell-based. The conditions noted are these: for SI: SI = IC50 (AB943)/IC50 (P.f. FcB1); for cytotoxicity in words: judged from SI, AB943 fibroblasts. Here is the method: Moreover, their cytotoxicity was measured, as previously reported, upon the primary human fibroblast cell line AB943, which allowed the calculation of their selectivity index (SI).
Specifically, IC50 (μM) values for the antiplasmodial activities were determined from four independent experiments as the mean values ± standard deviations. IC50 (μM) values for the cytotoxicity activities were determined from two independent experiments as the mean values ± standard deviations.
Cytotoxicity evaluation was performed upon human primary fibroblasts (cell line AB943). Assays were realized in 96-well plates in DMEM + Glutamax without phenol red medium (Gibco) containing 25 mM HEPES, pH 7.3, 10% fetal calf serum under a 5% CO2 atmosphere, at 37 °C. After trypsin treatment, AB943 cells were seeded at 2000 cells per well in 100 µL. After 24 h of incubation, drugs diluted in culture medium were added (100 µL per well). Drug stock solutions were prepared in dimethyl sulfoxide (DMSO). The final DMSO concentration in the cultures remained below 1%. Control cultures were constituted of cultures treated with DMSO instead of drug. The cytotoxicity assay was based on the conversion of a redo-sensitive dye (resazurin) to a fluorescent product by viable cells. […] The percentage of inhibition of cell growth was calculated by comparing the fluorescence of cells maintained in the presence of drug to that in the absence of drug.
A general note: Resazurin is reduced to fluorescent resorufin, in cell work by metabolically active cells.

On the set-up of series [3]: method as in PMID 10477522, PMID 17887769. Conditions: in vitro and in a mouse model; cited from earlier work.
Setting [4] is: CQ-resistant P. falciparum FcB1/Colombia strain, mean ± SD of four independent experiments, read-out: IC50.

Several values for one entry are separate records, joined by “and”; a condition that tells them apart may be missing. Equal entries are not always repeated. Where two headings read alike, the source gives them in different places.

Usually IC50 stands for the concentration that inhibits the measured activity by half.

Consider `C[C@@H]1CC[C@H]2[C@@H](C)C(=O)O[C@@H]3O[C@@]4(C)CC[C@@H]1[C@]32OO4` [ART, artemisinin, reference compound], for which the half-inhibitory concentration (IC50) in series [1] (Plasmodium falciparum, CQ-resistant P. falciparum FcB1/Colombia strain, control drugs, unit (nM), read-out: IC50) came out at 55 ± 13.6 nM. As for `CCN(CC)CCCC(C)Nc1ccnc2cc(Cl)ccc12` (stereo not drawn) [CQ, Chloroquine, reference compound], in series [1] (Plasmodium falciparum, FCB1), it took 72 ± 7.4 nM to reach half-maximal inhibition (IC50).

For `CCOP(=O)(CCCN(O)C(C)=O)OCC` [Compound 17], the concentration for half-maximal inhibition (IC50) in series [1] (setting [4]) was over 100000 nM. In turn, `CCOP(=O)(CCCN(O)C(=O)CCC(=O)N(O)CCCP(=O)(OCC)OCC)OCC` [Compound 18, Tetraethyl-((succinylbis(hydroxyazanediyl))bis (propane-3,1-diyl))bis(phosphonate)] showed an IC50 in series [1] (Plasmodium falciparum, FCB1) of over 100000 nM. The compound `CCOP(=O)(CCCN(O)C(=O)CCC(=O)N1CCN(c2ccnc3cc(Cl)ccc23)CC1)OCC` [Compound 19, Diethyl (3-(4-(4-(7-chloroquinolin-4-yl)piperazin-1-yl)-N-hydroxy-4-oxobutanamido)propyl) phosphonate] had an SI in series [2] of 23.9. In addition, in series [1] (Plasmodium falciparum, FCB1), the IC50 came out at 2700 ± 500 nM. Moreover, in series [1], the “fold more active in comparison to the diester compound 17” value is recorded as 25–40 and the “times more active than FSM” value was 3.5–5.5. The matching figures for `CCOP(=O)(CCCN(O)C(=O)CCC(=O)NCCNc1ccnc2cc(Cl)ccc12)OCC.O=C(O)C(F)(F)F` [Compound 20, 7-Chloro-N-(2-(4-((3-(diethoxyphosphoryl)propyl)(hydroxy)amino)-4oxobutanamido)ethyl)quinolin-4-aminium 2,2,2-trifluoroacetate]: 23.7, 4200 ± 900 nM, 25–40 and 3.5–5.5. The compound `CCOP(=O)(CCCN(O)C(=O)CC[C@H]1O[C@@H]2O[C@]3(C)CC[C@H]4[C@H](C)CC[C@@H]([C@H]1C)C24OO3)OCC` [Compound 21, Diethyl (3-(N-hydroxy-3-((3S,5aS,6R,8aS,9R,10R,12R)-3,6,9-trimethyldecahydro-12H-3, 12-epoxy[1,2]dioxepino[4,3-i]isochromen-10-yl)propanamido)propyl)phosphonate] registered a 50% inhibitory concentration (IC50) in series [1] (Plasmodium falciparum, FCB1) of 28000 ± 11600 nM.

For `CCOP(=O)(CCCN(O)C(=O)CCC(=O)NNC(=O)OC(C)(C)C)OCC` [Compound 26, Tert-butyl 2-(4-((3-(diethoxyphosphoryl)propyl)(hydroxy)amino)-4-oxobutanoyl) hydrazine-1-carboxylate], the half-inhibitory concentration (IC50) in series [1] (Plasmodium falciparum, FCB1) came out at 86000 ± 1400 nM. Take `CCOP(=O)(CCCN(O)C(=O)CCC(=O)Nc1ccccc1N)OCC` [Compound 27, Diethyl(3-(4-((2-aminophenyl)amino)-N-hydroxy-4-oxobutanamido)propyl) phosphonate]: in series [1] (Plasmodium falciparum, FCB1), it took 81000 ± 2800 nM to reach half-maximal inhibition (IC50).

`CCOP(=O)(CCCN(O)C(=O)CCC(=O)N(Cc1ccccc1)Cc1ccccc1)OCC` [Compound 28, Diethyl (3-(4-(dibenzylamino)-N-hydroxy-4-oxobutanamido)propyl)phosphonate] had an IC50 in series [1] (Plasmodium falciparum, FCB1) of 38700 ± 10000 nM. Regarding `CCOP(=O)(CCCN(O)C(=O)CCC(=O)Nc1ccc(Cc2ccc(NC(=O)OC(C)(C)C)cc2)cc1)OCC` [Compound 29, Tert-butyl(4-(4-(4-((3-(diethoxyphosphoryl)propyl)(hydroxy)amino)-4-oxobutanamido)benzyl)phenyl) carbamate], in series [2], the SI is listed as 1.7 and the cytotoxicity in words entry is given as “cytotoxic”. In series [1] (Plasmodium falciparum, FCB1), the IC50 was 22700 ± 1900 nM. In series [1] (Plasmodium falciparum, FCB1), `CCOP(=O)(CCCN(O)C(=O)CCC(=O)NCc1ccccc1)OCC` [Compound 30, Diethyl (3-(4-(benzylamino)-N-hydroxy-4-oxobutanamido)propyl) phosphonate] registered an IC50 of over 100000 nM. On the same count and under the same terms, then `CCOP(=O)(CCCN(O)C(=O)CCC(=O)NC(c1ccccc1)c1ccccc1)OCC` [Compound 31, Diethyl(3-(4-(benzhydrylamino)-N-hydroxy-4-oxobutanamido)propyl)phosphonate], with 44200 ± 9500 nM. Same read-out and setting: then `CCOP(=O)(CCCN(O)C(=O)CCC(=O)N1CCN(C)CC1)OCC` [Compound 32, Diethyl (3-(N-hydroxy-4-(4-methylpiperazin-1-yl)-4-oxobutanamido)propyl) phosphonate], with over 100000 nM; and `CCOP(=O)(CCCN(O)C(=O)CCC(=O)N1CCNCC1)OCC` [Compound 33, 4-(4-((3-(Diethoxyphosphoryl)propyl)(hydroxy)amino)-4-oxobutanoyl)piperazin-1-ium 2,2,2-trifluoroacetate], with over 100000 nM. On to `CCOP(=O)(CCCNc1ccccc1N)OCC` [Compound 34, Diethyl (3-((2-aminophenyl)amino)propyl)phosphonate], for which, in series [2], the SI stood at 3.7 and the cytotoxicity in words result is listed as “cytotoxic”. In addition, the IC50 in series [1] (setting [4]) turned out to be 8200 ± 2700 nM.

In series [1] (Plasmodium falciparum, FCB1), `Nc1ccccc1NCCCP(=O)(O)O` [Compound 35, (3-((2-Aminophenyl)amino)propyl)phosphonic acid] returned an IC50 of over 100000 nM.

In series [2], `CC(=O)N(O)CCCP(=O)(O)O` [FR900098, reference compound] gave an SI of over 14.2. The compound further displayed an IC50 in series [1] (Plasmodium falciparum, FCB1) of 7000 nM. Moreover, the “activity relative to FSM” value in series [3] is given as “about twice as active as FSM”.

`O=CN(O)CCCP(=O)(O)O` [FSM, fosmidomycin, reference compound] showed an SI in series [2] of over 6.6. In addition, the “fold less active than FR900098” value in series [1] (P. falciparum FcB1) was 2. Moreover, the IC50 in series [1] (Plasmodium falciparum, CQ-resistant P. falciparum FcB1/Colombia strain, mean ± SD of four independent experiments, read-out: IC50) was determined as 15000 ± 1700 nM. Compound “Diethyl(3-(4-(bis(4-(3-((3S,5aS,6R,8aS,9R,10R,12R)-3,6,9-trimethyldecahydro-12H-3,12-epoxy[1,2]dioxepino[4,3-i]isochromen-10-yl)propanamido)butyl)amino)-N-hydroxy-4-oxobutanamido)propyl)phosphonate [Compound 23]” yielded an SI in series [2] of 34. Besides, the IC50 in series [1] (setting [4]) came to 650 ± 260 nM. The “times more active than FSM” value in series [1] is 23–41. With “Diethyl(3-(N-hydroxy-4-oxo-4-((4-(3-((3S,5aS,6R,8aS,9R,10R,12R)-3,6,9-trimethyldecahydro-12H-3,12-epoxy[1,2]dioxepino[4,3-i]isochromen-10-yl)propanamido)butyl)(3-(3-((3S,5aS,6R,8aS,9R,10R,12R)-3,6,9-trimethyldecahydro-12H-3,12-epoxy[1,2]dioxepino[4,3-i]isochromen-10-yl)propanamido)propyl)amino) butanamido)propyl)phosphonate [Compound 22]”, the SI in series [2] was 94 and 94.1. In addition, the IC50 in series [1] (setting [4]) was determined as 360 ± 90 nM. Moreover, the “times more active than FSM” value in series [1] was 23–41.

The record behind these values is article PMC7587979 (Molecules, 2020).
